Measurements from patent US11226337B2, “Chemoproteomic profiling of protein electrophilic and oxidative post-translational modifications” (Zenagem, LLC, priority 2017, dated 2022).

Tests used:
Experiment in all cases: SILAC RP-ABPP
Format in all cases: cell-based
[1] = target: T1, PSAP Proactivator polypeptide (P07602) (Homo sapiens, UniProt P07602); conditions: SILAC H/L, MDA-MB-231
T1 construct: In Situ Labelling of Cells with Hydrazine Probes for MS Experiments; endogenous in cells; host or cells: HEK293T and MDA-MB-231
T1 sequence (P07602 60-524): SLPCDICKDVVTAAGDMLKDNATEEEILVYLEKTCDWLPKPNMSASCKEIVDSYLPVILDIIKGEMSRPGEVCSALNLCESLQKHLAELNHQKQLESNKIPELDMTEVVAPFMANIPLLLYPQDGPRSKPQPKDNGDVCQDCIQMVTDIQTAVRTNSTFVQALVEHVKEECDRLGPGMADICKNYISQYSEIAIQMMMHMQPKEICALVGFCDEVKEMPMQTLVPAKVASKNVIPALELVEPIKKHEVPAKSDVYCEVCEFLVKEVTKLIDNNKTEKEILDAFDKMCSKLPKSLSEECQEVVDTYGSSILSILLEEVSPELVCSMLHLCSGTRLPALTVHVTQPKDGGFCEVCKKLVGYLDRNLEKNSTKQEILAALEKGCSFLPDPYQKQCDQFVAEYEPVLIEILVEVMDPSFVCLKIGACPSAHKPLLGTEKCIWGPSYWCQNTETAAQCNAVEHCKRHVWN

[2] = target: T2, SERPINE1 Plasminogen activator inhibitor 1 (P05121) (Homo sapiens, UniProt P05121); conditions: SILAC H/L, MDA-MB-231
T2 construct: In Situ Labelling of Cells with Hydrazine Probes for MS Experiments; endogenous in cells

[3] = target: T3, IBA57 Putative transferase CAF17 (Q5T440) (Homo sapiens, UniProt Q5T440); conditions: SILAC H/L, HEK293T
T3 construct: shared by both the endogenous and recombinant forms of these proteins; endogenous in cells; host or cells: HEK293T and MDA-MB-231
T3 sequence (Q5T440 40-356): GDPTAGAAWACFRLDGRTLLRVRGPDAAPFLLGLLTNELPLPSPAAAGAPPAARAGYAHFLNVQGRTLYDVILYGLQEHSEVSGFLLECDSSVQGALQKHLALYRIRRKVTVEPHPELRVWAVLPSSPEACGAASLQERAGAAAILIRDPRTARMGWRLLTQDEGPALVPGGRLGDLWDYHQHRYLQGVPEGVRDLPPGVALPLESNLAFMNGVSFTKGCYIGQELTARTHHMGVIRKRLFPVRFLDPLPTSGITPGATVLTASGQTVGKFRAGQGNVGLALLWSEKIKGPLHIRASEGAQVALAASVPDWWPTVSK

[4] = target: T4, PLD3 Phospholipase D3 (Q8IV08) (Homo sapiens, UniProt Q8IV08); conditions: SILAC H/L, HEK293T
T4 construct: shared by both the endogenous and recombinant forms of these proteins; endogenous in cells; host or cells: HEK293T and MDA-MB-231
T4 sequence (Q8IV08 1-490): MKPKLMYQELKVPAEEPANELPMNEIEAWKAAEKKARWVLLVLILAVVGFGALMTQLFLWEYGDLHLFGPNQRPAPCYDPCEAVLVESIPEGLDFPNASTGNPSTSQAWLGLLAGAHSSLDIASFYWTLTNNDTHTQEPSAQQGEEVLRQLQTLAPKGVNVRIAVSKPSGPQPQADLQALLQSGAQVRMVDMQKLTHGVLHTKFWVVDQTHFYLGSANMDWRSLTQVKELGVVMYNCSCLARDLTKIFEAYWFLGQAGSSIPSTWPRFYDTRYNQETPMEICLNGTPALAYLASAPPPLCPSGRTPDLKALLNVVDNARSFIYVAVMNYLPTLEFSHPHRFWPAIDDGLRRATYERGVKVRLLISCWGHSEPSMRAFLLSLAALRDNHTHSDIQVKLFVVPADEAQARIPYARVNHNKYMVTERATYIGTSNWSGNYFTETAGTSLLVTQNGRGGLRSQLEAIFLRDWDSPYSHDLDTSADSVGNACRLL

T2 sequence (P05121 24-402): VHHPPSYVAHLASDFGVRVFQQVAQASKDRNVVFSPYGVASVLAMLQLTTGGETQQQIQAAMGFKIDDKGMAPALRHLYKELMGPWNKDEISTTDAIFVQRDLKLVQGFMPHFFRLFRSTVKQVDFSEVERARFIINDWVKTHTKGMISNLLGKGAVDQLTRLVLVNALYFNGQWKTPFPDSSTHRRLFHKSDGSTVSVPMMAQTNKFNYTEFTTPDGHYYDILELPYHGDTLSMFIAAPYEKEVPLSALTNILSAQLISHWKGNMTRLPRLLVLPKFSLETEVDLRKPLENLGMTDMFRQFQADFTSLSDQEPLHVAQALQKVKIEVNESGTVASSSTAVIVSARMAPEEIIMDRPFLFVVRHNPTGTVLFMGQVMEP

## C#CCNN.Cl [probe 1, prop-2-yn-1-ylhydrazine hydrochloride]
[1]; probe 1 3 mM 0.5 h vs probe 3
  enrichment ratioavg: 12
[1]; probe 1 vs probe 1+10x probe 3
  competition ratioavg: 3
[2]; probe 1 3 mM 0.5 h vs probe 3
  enrichment ratioavg: 17
[2]; probe 1 vs probe 1+10x probe 3
  competition ratioavg: 3
[3]; probe 1 3 mM 0.5 h vs probe 3
  enrichment ratioavg: 14
[3]; probe 1 vs probe 1+10x probe 3
  competition ratioavg: 3
[4]; probe 1 3 mM 0.5 h vs probe 3
  enrichment ratioavg: 12
[4]; probe 1 vs probe 1+10x probe 3
  competition ratioavg: 2

## C#CCCNC(=O)c1ccc(NN)cc1.Cl [probe 2, N-(but-3-yn-1-yl)-4-hydrazinylbenzamide hydrochloride]
[1]; probe 2 1 mM 0.5 h vs probe 4
  enrichment ratioavg: 5
[1]; probe 2 vs probe 2+10x probe 4
  competition ratioavg: 5
[2]; probe 2 1 mM 0.5 h vs probe 4
  enrichment ratioavg: 20
[2]; probe 2 vs probe 2+10x probe 4
  competition ratioavg: 3
[3]; probe 2 1 mM 0.5 h vs probe 4
  enrichment ratioavg: 9
[3]; probe 2 vs probe 2+10x probe 4
  competition ratioavg: 4
[4]; probe 2 1 mM 0.5 h vs probe 4
  enrichment ratioavg: 5
[4]; probe 2 vs probe 2+10x probe 4
  competition ratioavg: 2
